Reference: the NIST ThermoML archive (doi:10.1021/je034188o)

Experiment: cn = amount concentration of the nth substance listed, in mol/dm3
Conditions: 101 kPa, Liquid

C1COCCOCCOCCOCCOCCO1 [1,4,7,10,13,16-hexaoxacyclooctadecane] + ClC(Cl)(Cl)Cl
Conditions	mass density [kg/m3]
293.15 K, c1 = 0.06567	1586.34
293.15 K, c1 = 0.09829	1582.87
293.15 K, c1 = 0.1283	1579.71
293.15 K, c1 = 0.1856	1573.71
293.15 K, c1 = 0.2464	1567.44
293.15 K, c1 = 0.3256	1559.42
298.15 K, c1 = 0.06528	1576.94
298.15 K, c1 = 0.09771	1573.63
298.15 K, c1 = 0.1275	1570.6
298.15 K, c1 = 0.1846	1564.86
298.15 K, c1 = 0.2451	1558.88
298.15 K, c1 = 0.3239	1551.22
303.15 K, c1 = 0.0649	1567.64
303.15 K, c1 = 0.09714	1564.39
303.15 K, c1 = 0.1268	1561.42
303.15 K, c1 = 0.1835	1555.75
303.15 K, c1 = 0.2436	1549.77
303.15 K, c1 = 0.322	1542.04
308.15 K, c1 = 0.06453	1558.35
308.15 K, c1 = 0.09662	1555.25
308.15 K, c1 = 0.1261	1552.41
308.15 K, c1 = 0.1827	1547.01
308.15 K, c1 = 0.2426	1541.36
308.15 K, c1 = 0.3209	1534.08

C1COCCOCCOCCOCCOCCO1 [1,4,7,10,13,16-hexaoxacyclooctadecane] + O
Conditions	mass density [kg/m3]
293.15 K, c1 = 0.0406	999.92
293.15 K, c1 = 0.07841	1001.5
293.15 K, c1 = 0.1209	1003.25
293.15 K, c1 = 0.1782	1005.57
293.15 K, c1 = 0.2079	1006.75
293.15 K, c1 = 0.2528	1008.52
293.15 K, c1 = 0.3203	1011.12
298.15 K, c1 = 0.04054	998.67
298.15 K, c1 = 0.07831	1000.21
298.15 K, c1 = 0.1207	1001.91
298.15 K, c1 = 0.1779	1004.16
298.15 K, c1 = 0.2076	1005.32
298.15 K, c1 = 0.2524	1007.03
298.15 K, c1 = 0.3198	1009.57
303.15 K, c1 = 0.04049	997.39
303.15 K, c1 = 0.0782	998.84
303.15 K, c1 = 0.1205	1000.51
303.15 K, c1 = 0.1777	1002.72
303.15 K, c1 = 0.2073	1003.84
303.15 K, c1 = 0.252	1005.51
303.15 K, c1 = 0.3193	1008
308.15 K, c1 = 0.04042	995.61
308.15 K, c1 = 0.07806	997.09
308.15 K, c1 = 0.1203	998.72
308.15 K, c1 = 0.1774	1000.89
308.15 K, c1 = 0.2069	1001.99
308.15 K, c1 = 0.2515	1003.65
308.15 K, c1 = 0.3187	1006.08

ClC(Cl)(Cl)Cl [tetrachloromethane] + C1COCCOCCOCCOCCOCCO1
c2 = 0
Conditions	mass density [kg/m3]
293.15 K	1593.39
298.15 K	1583.71
303.15 K	1574.2
308.15 K	1564.65
